Data from patent publication US20060069132A1, “Azolecarboxamide herbicides” (priority 2004, published 2006).

Assays:
[1] = system: yellow nutsedge; assay: Test C pre-/postemergence herbicide test; format: in vivo, Cyperus esculentus; details: for Nutsedge, Yellow plant response rating: 500 g ai/ha
Procedure, shortened: (§1)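 Visual injury scores run from 0 (no effect) to 100 (complete control), assessed relative to untreated controls 12 to 14 days after treatment in the greenhouse. Chemicals were formulated in a non-phytotoxic solvent mixture with surfactant and applied to soil after planting or to emerged plants at the 1- to 4-leaf stage.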

[2] = system: velvetleaf; assay: Test C pre-/postemergence herbicide test; format: in vivo, Abutilon theophrasti; details: for Velvetleaf plant response rating: 500 g ai/ha
Procedure, shortened: as §1

[3] = system: Surinam grass; assay: Test C pre-/postemergence herbicide test; format: in vivo, Urochloa decumbens; details: for Surinam Grass plant response rating: 500 g ai/ha
Procedure, shortened: as §1

[4] = system: large crabgrass; assay: Test C pre-/postemergence herbicide test; format: in vivo, Digitaria sanguinalis; details: for Crabgrass, Large plant response rating: 500 g ai/ha
Procedure, shortened: as §1

[5] = system: corn; assay: Test C pre-/postemergence herbicide test; format: in vivo, Zea mays; details: for Corn plant response rating: 500 g ai/ha
Procedure, shortened: as §1

[6] = system: soybean; assay: Test C pre-/postemergence herbicide test; format: in vivo, Glycine max; details: for Soybean plant response rating: 500 g ai/ha
Procedure, shortened: as §1

[7] = system: wild oat; assay: Test B postemergence herbicide test; format: in vivo, Avena fatua; details: postemergence, visual rating, scale 0 (no effect) to 100 (complete control)
Procedure, shortened: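 Postemergence plants were sprayed with formulated test chemicals at 2 to 18 cm height (1- to 4-leaf stage); paddy species were grown to the 2-leaf stage. After 13 to 15 days in a greenhouse, injury was rated visually against untreated controls on a 0–100 scale (0 = no effect, 100 = complete control).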

[8] = system: johnsongrass; assay: Test C pre-/postemergence herbicide test; format: in vivo, Sorghum halepense; details: for Johnsongrass plant response rating: 500 g ai/ha
Procedure, shortened: as §1

[9] = system: pigweed; assay: Test C pre-/postemergence herbicide test; format: in vivo, Amaranthus retroflexus; details: for Pigweed plant response rating: 500 g ai/ha
Procedure, shortened: as §1

[10] = system: corn; assay: Test B pre-/postemergence herbicide test; format: in vivo, Zea mays; details: for Plant response rating, Corn: preemergence; for Corn plant response rating: postemergence, visual rating, scale 0 (no effect) to 100 (complete control)
Procedure, shortened: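 Seeds were planted and treated preemergence with compounds formulated in a non-phytotoxic solvent mixture containing surfactant, while plants at the 1- to 4-leaf stage (2 to 18 cm) received postemergence sprays. Flooded paddy plants were grown to the 2-leaf stage. After 13 to 15 days in a greenhouse, injury was visually rated 0–100 against untreated controls.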

[11] = 125 g ai/ha, scale 0 (no effect) to 100 (complete control), visual, 12 to 14 days, preemergence
[12] = Preemergence, scale 0 to 100, 0 no effect, 100 complete control
[13] = 250 g ai/ha, scale 0 to 100 (0 no effect, 100 complete control), visual, 12 to 14 days, preemergence
[14] = 500 g ai/ha, visual rating 0-100, 0 no effect, 100 complete control
[15] = 125 g ai/ha, 0 to 100 scale, 0 is no effect, 100 is complete control
[16] = Postemergence, 250 g ai/ha, scale 0 to 100, 0 no effect, 100 complete control
[17] = postemergence, 125 g ai/ha, scale 0 to 100
[18] = postemergence, 62 g ai/ha, scale 0 to 100

Structure (SMILES): CCN(CC)C(=O)c1cccc(NC(=O)c2cc(C(C)(C)C)nn2CC)n1 [Compound 145]
- Plant response rating (0 = no effect, 100 = complete control), Nutsedge, Yellow ([1]; 62 g ai/ha, preemergence): 0
- Plant response rating, Nutsedge, Yellow [1, 11]: 0
- Nutsedge, Yellow plant response rating [1, 12]: 0
- Plant response rating, Velvetleaf [2, 11]: 20
- Velvetleaf plant response rating [2, 12]: 100
- Plant response rating (0 = no effect, 100 = complete control), Surinam Grass ([3]; 62 g ai/ha, preemergence): 0
- Plant response rating, Surinam Grass [3, 11]: 50
- Surinam Grass plant response rating [3, 12]: 70
- Plant response rating, Crabgrass, Large [4, 11]: 50
- Plant response rating, Crabgrass, Large [4, 13]: 80
- Crabgrass, Large plant response rating [4, 12]: 80
- Plant response rating (0 = no effect, 100 = complete control), Corn ([5]; 62 g ai/ha, preemergence): 0
- Plant response rating, Corn [5, 11]: 0
- Plant response rating, Corn [5, 13]: 5
- Corn plant response rating [5, 12]: 20
- Plant response rating, Soybean [6, 11]: 10
- Soybean plant response rating [6, 12]: 60
- Oat, Wild plant response rating ([7]; 125 g ai/ha): 10
- Oat, Wild plant response rating ([7]; 500 g ai/ha): 30
- Plant response rating (0 = no effect, 100 = complete control), Johnsongrass ([8]; 62 g ai/ha, preemergence): 50
- Plant response rating, Johnsongrass [8, 11]: 65
- Johnsongrass plant response rating [8, 12]: 90
- Plant response rating (0 = no effect, 100 = complete control), Pigweed ([9]; 62 g ai/ha, preemergence): 85
- Plant response rating, Pigweed [9, 11]: 90
- Pigweed plant response rating [9, 12]: 95
- Plant response rating, Corn [10, 14]: 10
- Corn plant response rating ([10]; 125 g ai/ha): 10
- Corn plant response rating ([10]; 500 g ai/ha): 20
- Plant response rating, Corn [10, 15]: 0

Structure (SMILES): CCn1nc(C(C)(C)C)cc1C(=O)Nc1cccc(C(=O)NC2CC2)n1 [Compound 146]
- Plant response rating (0 = no effect, 100 = complete control), Nutsedge, Yellow ([1]; 62 g ai/ha, preemergence): 0
- Plant response rating, Nutsedge, Yellow [1, 11]: 0
- Nutsedge, Yellow plant response rating ([1]; Postemergence, scale 0 to 100): 0
- Plant response rating, Nutsedge, Yellow [1, 16]: 0
- Nutsedge, Yellow plant response rating [1, 12]: 0
- Plant response rating, Nutsedge, Yellow [1, 17]: 0
- Plant response rating, Nutsedge, Yellow [1, 18]: 0
- Plant response rating, Velvetleaf [2, 11]: 40
- Velvetleaf plant response rating ([2]; Postemergence, scale 0 to 100): 40
- Plant response rating, Velvetleaf [2, 16]: 40
- Velvetleaf plant response rating [2, 12]: 100
- Plant response rating, Velvetleaf [2, 17]: 35
- Plant response rating, Velvetleaf [2, 18]: 30
- Plant response rating (0 = no effect, 100 = complete control), Surinam Grass ([3]; 62 g ai/ha, preemergence): 0
- Plant response rating, Surinam Grass [3, 11]: 0
- Surinam Grass plant response rating ([3]; Postemergence, scale 0 to 100): 20
- Plant response rating, Surinam Grass [3, 16]: 0
- Surinam Grass plant response rating [3, 12]: 50
- Plant response rating, Surinam Grass [3, 17]: 0
- Plant response rating, Surinam Grass [3, 18]: 0
- Plant response rating (0 = no effect, 100 = complete control), Crabgrass, Large ([4]; 62 g ai/ha, preemergence): 20
- Crabgrass, Large plant response rating ([4]; Postemergence, scale 0 to 100): 85
- Plant response rating, Crabgrass, Large [4, 16]: 50
- Crabgrass, Large plant response rating [4, 12]: 70
- Plant response rating, Crabgrass, Large [4, 17]: 0
- Plant response rating, Crabgrass, Large [4, 18]: 0
- Plant response rating (0 = no effect, 100 = complete control), Corn ([5]; 62 g ai/ha, preemergence): 0
- Plant response rating, Corn [5, 11]: 0
- Plant response rating, Corn [5, 13]: 10
- Corn plant response rating ([5]; Postemergence, scale 0 to 100): 30
- Plant response rating, Corn [5, 16]: 10
- Corn plant response rating [5, 12]: 30
- Plant response rating, Corn [5, 17]: 5
- Plant response rating, Corn [5, 18]: 5
- Plant response rating (0 = no effect, 100 = complete control), Soybean ([6]; 62 g ai/ha, preemergence): 0
- Plant response rating, Soybean [6, 11]: 0
- Soybean plant response rating ([6]; Postemergence, scale 0 to 100): 80
- Plant response rating, Soybean [6, 16]: 30
- Soybean plant response rating [6, 12]: 0
- Plant response rating, Soybean [6, 17]: 20
- Plant response rating, Soybean [6, 18]: 20
- Oat, Wild plant response rating ([7]; 125 g ai/ha): 10
- Oat, Wild plant response rating ([7]; 500 g ai/ha): 20
- Plant response rating, Johnsongrass [8, 11]: 30
- Johnsongrass plant response rating ([8]; Postemergence, scale 0 to 100): 0
- Plant response rating, Johnsongrass [8, 16]: 0
- Johnsongrass plant response rating [8, 12]: 70
- Plant response rating, Johnsongrass [8, 17]: 0
- Plant response rating, Johnsongrass [8, 18]: 0
- Plant response rating (0 = no effect, 100 = complete control), Pigweed ([9]; 62 g ai/ha, preemergence): 80
- Plant response rating, Pigweed [9, 11]: 95
- Pigweed plant response rating ([9]; Postemergence, scale 0 to 100): 100
- Plant response rating, Pigweed [9, 16]: 100
- Pigweed plant response rating [9, 12]: 100
- Plant response rating, Pigweed [9, 17]: 90
- Plant response rating, Pigweed [9, 18]: 80
- Plant response rating, Corn [10, 14]: 0
- Corn plant response rating ([10]; 125 g ai/ha): 10
- Corn plant response rating ([10]; 500 g ai/ha): 30
- Plant response rating, Corn [10, 15]: 0
